Data on 2 compounds can be found in paper PMC7071076, “Antibacterial Activity and Pharmacokinetic Profile of a Promising Antibacterial Agent: 22-(2-Amino-phenylsulfanyl)-22-Deoxypleuromutilin” (Molecules, 2020).

In experiment [1] the test system is S. typhimurium ATCC 14028. The experiment can be described thus: MIC testing (broth dilution, 96-well plate). Type of experiment: cell-based. The following applies: Salmonella enterica. On the procedure: (§1) The MIC of amphenmulin against MRSA, Escherichia coli, Salmonella typhimurium, Enterococcus faecalis, and Enterococcus faecium were determined using tiamulin as controls. MIC values were measured by the method of previous work. Staphylococcus aureus ATCC 29213 was used as the quality control bacteria, and the quality control range was referred to the Clinical and Laboratory Standards Institute (CLSI). The bacteria solution was diluted to ~10^6 CFU/mL with Mueller–Hinton (MH) broth for MRSA, Escherichia coli and Salmonella typhimurium while Trypticase Soy Broth for Enterococcus faecalis and Enterococcus faecium. Drugs were dissolved in an aqueous solution of N, N-dimethylformamide (DMF) at a concentration of 2560 µg/mL, and then diluted with broth to prepare working solution (1280 µg/mL). The drug susceptibility testing was performed in 96-well plate. A total of 20 µL of working solution was added into column 1 and well mixed as a 10-fold dilution, following which Serial 2-fold dilutions were prepared to provide concentration ranges of 128–0.0078 µg/mL. Blank broth (no cultures) and bacteria solution (drugs replaced by blank solvent) were set as drug-free controls. Each 96-well plate was cultured at 37 °C for 24 h. The MIC value is the lowest concentration of amphenmulin which inhibits the visible growth of bacteria. The experiment was repeated three times.
A general note: Broth dilution looks for growth in wells or tubes with falling amounts of substance.

Another experiment deals with E. faecium ATCC 35667. The experiment can be described thus: MIC testing (broth dilution, 96-well plate). Type of experiment: cell-based. The following applies: Enterococcus faecium, ATCC35667. On the procedure: as §1
The test system of another experiment is S. aureus ATCC 29213. The experiment can be described thus: MIC testing (broth dilution, 96-well plate). Format: cell-based. The conditions noted are these: Staphylococcus aureus, ATCC29213. On the procedure:
as §1

Another experiment relates to E. faecalis ATCC 29212. Put plainly: MIC testing (broth dilution, 96-well plate). Type of experiment: cell-based. The conditions noted are these: Enterococcus faecalis, ATCC29212. As to the method:
as §1

The next experiment deals with E. coli ATCC 25922. The experiment can be described thus: MIC testing (broth dilution, 96-well plate). Type of experiment: cell-based. The following applies: Escherichia coli, ATCC25922. On the procedure: as §1
The test system of a further experiment is MRSA N20. Put plainly: MIC testing, clinical strain. Format: cell-based. The following applies: Staphylococcus aureus.
Source text: (§2) Methicillin-resistant Staphylococcus aureus (MRSA) ATCC 43300, Staphylococcus aureus ATCC 29213, Escherichia coli ATCC 25922, Salmonella typhimurium ATCC 14028, Enterococcus faecalis ATCC 29212, and Enterococcus faecium ATCC 35667 were obtained from the China Institute of Veterinary Drug Control (Beijing, China). Five clinical strains of MRSA (N7, N9, N20, N30, and N54) were isolated from diseased pig tissues of South China Agricultural University and Foshan University Animal Hospital. All clinical strains were identified as MRSA by Gram stain, catalase reaction, coagulase test, staphylococcus API identification system test, MecA gene test, and methicillin MIC test.
as §1

The subject of the next experiment is MRSA N30. Put plainly: MIC testing, clinical strain. Type of experiment: cell-based. The conditions noted are these: Staphylococcus aureus.
Source text: as §2, §1

For another experiment, the system named is MRSA N54. The experiment can be described thus: MIC testing, clinical strain. The conditions noted are these: Staphylococcus aureus. Format: cell-based.
Source text: as §2, §1

The next experiment has as its system MRSA N7. The experiment can be described thus: MIC testing, clinical strain. Type of experiment: cell-based. The following applies: Staphylococcus aureus.
Source text: as §2, §1

In another experiment the test system is MRSA N9. The experiment can be described thus: MIC testing, clinical strain. Format: cell-based. The following applies: Staphylococcus aureus.
Source text: as §2, §1

Experiment [2] has as its system MRSA ATCC 43300. On the set-up: method as in PMID 28295316. The following applies: 4× MIC, cited from earlier work.
Experiment [3] has as its system MRSA ATCC 43300. Put plainly: MRSA wound infection model: wound size. Format: in vivo, mice. The conditions noted are these: after treatment for three days; 100 μL drug (3 mg/mL) on the wound. As to the method: (§3) Six weeks SPF-ICR female mice were used for this study. The Experimental model, inducted of inflammatory in mice by skin excision, was established referring to existing methods with some alterations. The mice were anesthetized with the intravenous injection of 1% sodium pentobarbital. After their hair on the back was shaved, the mice were anesthetized and the back skin was perforated with a biopsy perforator at a depth of fascia injury. The inoculum (50 μL), containing 10^9 CFU/mL of the indicated microorganism (MRSA ATCC 43300), was applied on the wound for three times at 30 min intervals. 100 μL drug (3 mg/mL) was administrated on the wound at 1 h after inoculation for three consecutive days. A total of 100 μL blank matrix was given to the infected control group and the non-infected group in the same way. The wound was wrapped with sterile gauze. During the treatment, all mice were kept individually and free to eat and drink.
The wounds were examined on day 1 and days 3 after treatment. The area of wound were measured according to previous reports with some modifications. In each group, six mice were taken out and anesthetized to take photos and measure the size of the wound as the results.

The subject of experiment [4] is MRSA ATCC 43300. Put plainly: MRSA wound infection model: wound bacterial burden. Format: in vivo, mice. On the procedure:
as §3
At the end of the examination, mice were anesthetized and killed. Tissue samples, reaching to the muscle membrane, were removed from the middle of the wound surface and homogenized in 0.9% saline. Serially diluted aliquots of homogenate were cultured on high-salt mannitol agar plate at 37 °C for 24 h. The log of the colony number was used for statistical analysis.

Converted amounts (≈) assume the structure as drawn. Structures can show the parent of a compound that is named as a salt. Where two headings read alike, the source gives them in different places.

What is called MIC is the lowest concentration that inhibits growth of the organism. On to `C=C[C@]1(C)C[C@@H](OC(=O)CSCCN(CC)CC)[C@]2(C)[C@H](C)CC[C@]3(CCC(=O)[C@H]32)[C@@H](C)[C@@H]1O` [Tiamulin, reference compound], for which the MIC is above 128 µg/mL in experiment [1]; 2 µg/mL (≈ 4.05 µM) in the experiment with E. faecium ATCC 35667; 0.5 µg/mL (≈ 1.01 µM) in the experiment with S. aureus ATCC 29213; above 128 µg/mL against E. faecalis ATCC 29212; above 128 µg/mL against E. coli ATCC 25922; 32 µg/mL (≈ 64.8 µM) in the experiment on MRSA N20. The MIC against MRSA N30 amounted to 32 µg/mL (≈ 64.8 µM); in the experiment on MRSA N54, 0.5 µg/mL (≈ 1.01 µM); in the experiment with MRSA N7, 16 µg/mL (≈ 32.4 µM); in the experiment with MRSA N9, 0.5 µg/mL (≈ 1.01 µM). Moreover, the PAE in the experiment with MRSA ATCC 43300 [2] (exposure for 1 h) was 1.90 h; with MRSA ATCC 43300 [2] (exposure for 2 h), 2.04 h.

In the case of `CN[C@H](CC(C)C)C(=O)N[C@H]1C(=O)N[C@@H](CC(N)=O)C(=O)N[C@H]2C(=O)N[C@H]3C(=O)N[C@H](C(=O)N[C@H](C(=O)O)c4cc(O)cc(O)c4-c4cc3ccc4O)[C@H](O)c3ccc(c(Cl)c3)Oc3cc2cc(c3O[C@@H]2O[C@H](CO)[C@@H](O)[C@H](O)[C@H]2O[C@H]2C[C@](C)(N)[C@H](O)[C@H](C)O2)Oc2ccc(cc2Cl)[C@H]1O` [vancomycin, vancomycin hydrochloride, reference compound], the wound area in the experiment on MRSA ATCC 43300 [3] is 0.44 ± 0.07 cm^2. For the same compound, in the experiment on MRSA ATCC 43300 [4] (one day after treatment, p < 0.05), the “number of bacteria in wound tissue vs infected group” value is listed as “significant decrease”. Besides, the “number of bacteria in wound tissue” value with MRSA ATCC 43300 [4] (three days after treatment, 100 μL drug (3 mg/mL) on the wound) is 4.25 ± 0.57 log10 CFU/mL.
